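Briefly, cells in 96-well plates were exposed to five compound concentrations for 48 h, and endpoints were estimated by linear interpolation. GI50: concentration for 50% inhibition of growth. At the TGI there is no net growth.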
How the values were obtained:
Assay in all cases: DTP human tumour cell line panel, 48 h
[1] = tested on: SF-539 CNS
[2] = tested on: T-47D breast
[3] = tested on: DU-145 prostate
[4] = tested on: OVCAR-4 ovarian
[5] = tested on: KM12 colon
[6] = tested on: RXF 393 renal
[7] = tested on: SW-620 colon
[8] = tested on: SK-MEL-5 melanoma
[9] = tested on: NCI/ADR-RES ovarian
[10] = tested on: NCI-H226 lung

SMILES | TGI [1] [µM] | TGI [2] [µM] | TGI [3] [µM] | TGI [4] [µM] | TGI [5] [µM] | TGI [6] [µM] | TGI [7] [µM] | TGI [8] [µM] | TGI [9] [µM] | TGI [10] [µM] | GI50 [1] [µM] | GI50 [2] [µM] | GI50 [3] [µM] | GI50 [4] [µM] | GI50 [5] [µM] | GI50 [6] [µM] | GI50 [7] [µM] | GI50 [8] [µM] | GI50 [9] [µM] | GI50 [10] [µM]
COc1cc(/C=C2\C[C@H]3[C@@H]4CC=C5C[C@@H](N6CCCC6)CC[C@]5(C)[C@H]4CC[C@]3(C)[C@H]2O)cc(OC)c1OC | 32.2 | 44.6 | 32.1 | 51.1 | 23 | 20.2 | > 61.4 | 30 | 40.8 | 39.7 |  |  |  |  |  |  |  |  |  | 
CCN(CC)CCCCCCCCNc1c2ccc(Cl)cc2nc2ccc(OC)cc12 | 2.87 | 6.91 | 3.18 | 2.71 | 3.92 | 2.09 | 2.67 | 2.89 | 10.3 | 3.74 | 1.42 | 2.82 | 1.55 | 1.14 | 1.42 | 0.763 | 1.02 | 1.54 | 2.46 | 1.74
O=C(O)Cc1ccc(Oc2nc3ccccc3nc2-c2cccs2)cc1 | > 100 | 63.6 | > 100 | > 100 | > 100 | 56.5 | > 100 | > 100 | > 100 | > 100 |  |  |  |  |  |  |  |  |  | 
Cn1ccnc1CCc1ccc(F)cc1F | > 100 | > 100 | > 100 | > 100 | > 100 | > 100 | > 100 | > 100 | > 100 | > 100 |  |  |  |  |  |  |  |  |  | 
COC(c1ccsc1)C(C#N)(C#N)N=Cc1ccsc1 (stereo not drawn) | 30.4 | 67.7 | 28.5 | 88 | 32.3 | 27 | 28.4 | 27.7 | 53.1 | 54.9 |  |  |  |  |  |  |  |  |  | 
C=CCNC1=C2C[C@@H](C)C[C@@H](OC)C(OC(=O)CCCN(C)C)[C@H](C)/C=C(\C)[C@@H](OC(N)=O)[C@H](OC)/C=C\C=C(/C)C(=O)NC(=CC1=O)C2=O (stereo partly drawn) | 19.3 | 24.7 | 18.1 | 26.3 | 14.6 | 18.6 | 16.9 | 8.73 | 52.1 | 29.4 |  |  |  |  |  |  |  |  |  | 
Brc1ccc2c(-c3nc(-c4c[nH]c5ccccc45)cs3)c[nH]c2c1 | 69.5 | > 100 | > 100 | > 100 | > 47.3 | > 68.7 | > 86.8 | 57.1 | > 100 | > 100 |  |  |  |  |  |  |  |  |  | 
Cc1cc(NS(=O)(=O)c2ccc(NC(=O)c3ccc4nc5ccccc5c(Nc5ccc(S(=O)(=O)N=C(N)N)cc5)c4c3)cc2)no1 | 44.9 | 34.4 | 32.3 | 31.4 | 32.2 | 31.1 | 48.5 | 30.5 | 57.5 | 28.5 |  |  |  |  |  |  |  |  |  | 
Cc1c(CNc2ccc(Cl)c(C(=O)NC(CC(=O)O)C(=O)O)c2)ccc2nc(N)nc(N)c12 (stereo not drawn) | > 1000 | > 1000 | > 1000 | > 1000 | > 1000 | > 1000 | > 1000 | > 1000 | > 1000 | > 1000 | 0.446 | > 1000 | 0.594 | 265 |  | > 1000 |  | 0.36 |  | > 1000
CC(=O)N1N=C(c2c(O)ccc3ccccc23)CC1C(=O)c1ccco1 (stereo not drawn) | 66.9 | > 100 | > 100 | > 100 | > 100 | > 100 | > 100 | 89.9 | > 100 | > 100 |  |  |  |  |  |  |  |  |  | 
COc1c2occc2c(OC)c2c(=O)c(S(=O)(=O)NC(=O)Nc3ccc(Cl)cc3)coc12 | > 10 | > 10 | > 10 | > 10 | > 10 | > 10 | > 10 | > 10 | > 10 | > 10 |  |  |  |  |  |  |  |  |  | 
COCn1c2ccc(OC(C)=O)cc2c2c(=O)oc(C)nc21 | > 100 | > 100 | > 100 | > 100 | > 100 | > 100 | > 100 | > 100 | > 100 | > 100 |  |  |  |  |  |  |  |  |  | 
C/C(O)=C/c1nc2ccccc2nc1/C=C(/C)O | 99.3 | 36.9 | 70.4 | 48.5 | 57.3 | 65.2 | > 100 | 35.4 | 93.2 | 61.3 |  |  |  |  |  |  |  |  |  | 
CCNC(=S)N/N=C/c1cc(OC)ccc1O | > 100 | > 100 | > 100 | > 100 | > 100 | > 100 | > 100 | > 100 | > 100 | > 100 |  |  |  |  |  |  |  |  |  | 
O=C1COC(c2ccccc2O)=NN1CCCN1CCCC1 | > 100 | > 100 | > 100 | > 100 | > 100 | > 100 | > 100 | > 100 | > 100 | > 100 |  |  |  |  |  |  |  |  |  | 
NNC(=O)CC(=O)Nc1ccc(Cl)cc1 | > 100 | > 100 | > 100 | > 100 | > 100 | > 100 | > 100 | > 100 | > 100 | > 100 |  |  |  |  |  |  |  |  |  | 
Oc1nc(N/N=C/c2c[nH]c3ccccc23)[nH]c1/C=C1\C=Nc2ccccc21 | 48.4 | 36.5 | > 100 | 86.1 | 44.8 | > 100 | 35.8 | 38.1 | 84.5 | 34.4 |  |  |  |  |  |  |  |  |  | 
Cc1c(-c2ccccc2)c(C#N)c2nnn(-c3ccccc3)c(=O)n12 | > 100 | > 100 | > 100 | > 100 | > 100 | > 100 | > 100 | > 100 | > 100 | > 100 |  |  |  |  |  |  |  |  |  | 
Nn1c(Cc2ccc(Cl)cc2)n[nH]c1=O | > 100 | > 100 | > 100 | > 100 | > 100 | > 100 | > 100 | > 100 | > 100 | > 100 |  |  |  |  |  |  |  |  |  | 
Cc1oc2nc1C(=O)NCc1nc(cs1)C(=O)N[C@H](C(C)C)c1nc(cs1)C(=O)N[C@H]2C | > 100 | > 100 | > 100 | > 100 | > 100 | > 100 | > 100 | > 100 | > 100 | > 100 |  |  |  |  |  |  |  |  |  | 
CC(C)(C)c1cc(C(O)(C(=O)O)C(=O)O)cc(C(C)(C)C)c1O | > 100 | > 100 | > 100 | > 100 | > 100 | > 100 | > 100 | > 100 | > 100 | > 100 |  |  |  |  |  |  |  |  |  | 
CCSSCS(C)(=O)=O | 29.5 | > 100 | 50.5 | 40 | > 100 | 49.5 | > 100 | > 100 | 83.8 | 96.4 |  |  |  |  |  |  |  |  |  | 
CC1(C)C2CCC1(CS(=O)(=O)Nc1ccccc1)C(=O)C2 (stereo not drawn) | > 100 | > 100 | > 100 | > 100 | > 100 | > 100 | > 100 | > 100 | > 100 | > 100 |  |  |  |  |  |  |  |  |  | 
CCCSc1cc(Cl)c(C)cc1S(=O)(=O)n1ccnc1OCCCN(C)C | > 100 | > 100 | > 100 | > 100 | > 100 | > 100 | > 100 | > 100 | > 100 | > 100 |  |  |  |  |  |  |  |  |  | 
N/C(=N\N=C\c1ccc2c(c1)OCO2)NO | 56.5 | > 100 | 99 | > 100 | 63.6 | > 100 | > 100 | 35.2 | 23.1 | 40.8 |  |  |  |  |  |  |  |  |  | 
CC1(C)O[C@H](C(=O)O)[C@@H](C(=O)O)O1 | > 100 | > 100 | > 100 | > 100 | > 100 | > 100 | > 100 | > 100 | > 100 | > 100 |  |  |  |  |  |  |  |  |  | 
O=c1c2ccccc2oc2c1ccc1ncccc12 | 53.3 | 31.2 | 59.5 | 46.1 | > 100 | 44.6 | 42 | 28 | 36.3 | 38.9 |  |  |  |  |  |  |  |  |  | 
O=C(Nc1ccccc1)c1cc2c(cc1Cl)Sc1nccn1S2(=O)=O | > 83.6 | > 72.9 | 40.5 | 99.9 | 54.4 | > 71.2 | > 78.9 | 31.1 | > 100 | > 100 |  |  |  |  |  |  |  |  |  | 28.6
CC(C)CC(=O)NC(Nc1ccc(S(=O)(=O)Nc2ncccn2)cc1)(C(F)(F)F)C(F)(F)F | > 100 | > 100 | > 100 | > 100 | > 100 | > 100 | > 100 | > 100 | > 100 | > 100 |  |  |  |  |  |  |  |  |  | 
